Experimental data taken from US20070185069A1, “Anti-angiogenic activity of 2-methoxyestradiol in combination with anti-cancer agents” (priority 2005, published 2007).
Values joined by “and” are separate entries in the source; they are usually repeats but may differ in a detail not shown here. Identical values can stand only once.

Tests used:
[1] = tested on: HUVEC; assay: HUVEC proliferation assay (BRDU); format: cell-based; details: 48 hours after application of drug
Procedure: (§1) U87 MG human glioblastoma cells were maintained in vitro in DMEM supplemented with 5% FBS, 2 mM glutamine, 1 mM sodium pyruvate, MEM vitamins and NEAA at 37° C. and 5% CO2. HUVEC were maintained in M 200 media. For both HUVEC and U87 MG proliferation assays, cells were plated in a 96 well plate at 5×10^3 cells per well and incubated at 37° C. overnight. At 24 hours, the media was aspirated and 2ME2 was administered to the cells at the following doses: […]. Proliferation was assessed 48 hours after application of drug by WST-1(U87 MG) or BRDU (HUVEC).

[2] = tested on: H2122; assay: H2122 tumor model, MST; format: in vivo; details: Paclitaxel, 2ME2 or both combined
[3] = tested on: U87 MG ectopic tumors; assay: Late stage U87 MG glioblastoma xenograft tumor model; format: in vivo, mice; details: for %Δ (Percent change in tumor volume from start of treatment): U87MG model, Temodar, 2ME2 or both combined; for inhibition of tumor growth: study day 28, treatment begun at about 300 mm^3, 2ME2 400 mg/kg p.o., q.d., Temodar 42 mg/kg p.o., q.d.×5
Procedure: In a second preclinical study the effectiveness of 2ME2 alone or in combination with Temodar® in the U87 MG glioblastoma xenograft tumor model was evaluated. Given the effectiveness of Temodar® at the maximally tolerated dose against 100 mm^3 tumor burden, we altered the treatment strategy such that treatment was initiated when mean tumor volume was approximately 300 mm^3. Cohorts of mice received treatment with either vehicle control, 2ME2 400 mg/kg p.o., q.d., Temodar® 42 mg/kg p.o., q.d×5, or 2ME2 400 mg/kg p.o., q.d. combined with Temodar® 42 mg/kg p.o., q.d.×5. Mice treated with the combination of 2ME2 and Temodar® received oral administration in the PM and AM, respectively.

[4] = tested on: RPMI-8226; assay: RPMI-8226 xenograft model of myeloma; format: in vivo; details: RPMI-8226 model; Velcade, 2ME2 or both combined
[5] = tested on: U87MG; assay: U87MG tumor model, CPT-11 combination; format: in vivo; details: CPT-11, 2ME2 or both combined
[6] = in vivo
Procedure: (§2) 2-methoxyestradiol (2ME2) is an endogenous metabolite of estradiol with antiproliferative, proapoptotic and antiangiogenic activity. […] A new formulation of 2ME2 with enhanced absorption, Panzem® NCD, is currently in clinical trials. In anticipation of Phase 2 clinical trials with Panzem® NCD, tests were conducted to assess its anti-tumor activity as either monotherapy or in combination with cytotoxic agents. In this preclinical study, the effectiveness of 2ME2 alone or with the antimetabolite, 5-Fluorouracil (5-FU) in the CT-26 syngeneic tumor model was evaluated. 5-FU is a well-recognized and commonly used antineoplastic agent used for treatment of colorectal cancer. […] Subsequent to these studies, male BALB/c mice were injected subcutaneously with 1×10^6 CT-26 cells. Starting 7 days after tumor cell inoculation when mean tumor volume was approximately 100 mm^3, cohorts of mice (n=5/group) began treatment with (a) vehicle alone; (b) 2ME@200mg/kg p.o. q.d.; (c) 5-FU 30mg/kg p.o. q.d.×5; (d) or a combination of 5-FU at 30 mg/kg p.o. q.d.×5 with 2ME2 at 50, 100, or 200 mg/kg p.o. q.d. […] Cohorts of mice receiving the combination of 5-FU and 2ME2 had oral administrations in the A.M. (5-FU) and the P.M. (2ME2).

[7] = biological target: T1, estrogen receptor α (Homo sapiens, UniProt P03372); details: LaVallee et al. 2002; cited from earlier work
T1 sequence (P03372 1-595): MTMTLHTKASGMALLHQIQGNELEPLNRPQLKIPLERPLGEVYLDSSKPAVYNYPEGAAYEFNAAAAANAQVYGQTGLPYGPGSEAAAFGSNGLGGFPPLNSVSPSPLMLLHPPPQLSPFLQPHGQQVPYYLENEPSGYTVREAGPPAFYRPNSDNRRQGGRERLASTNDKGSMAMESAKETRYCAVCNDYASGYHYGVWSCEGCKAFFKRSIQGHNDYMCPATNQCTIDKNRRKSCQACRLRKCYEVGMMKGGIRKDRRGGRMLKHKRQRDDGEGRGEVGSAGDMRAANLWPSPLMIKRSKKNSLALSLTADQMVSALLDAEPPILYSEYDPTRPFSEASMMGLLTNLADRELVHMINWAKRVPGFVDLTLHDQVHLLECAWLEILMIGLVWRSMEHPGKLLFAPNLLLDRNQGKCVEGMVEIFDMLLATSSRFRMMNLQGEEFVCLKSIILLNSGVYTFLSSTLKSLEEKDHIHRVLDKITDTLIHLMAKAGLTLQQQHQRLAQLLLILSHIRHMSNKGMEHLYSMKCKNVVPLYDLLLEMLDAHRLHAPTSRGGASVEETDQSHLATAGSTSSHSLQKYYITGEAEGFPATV

[8] = biological target: estrogen receptor β (Homo sapiens, UniProt Q92731); details: LaVallee et al. 2002; cited from earlier work
[9] = tested on: U87 MG human glioblastoma cells; assay: U87 MG proliferation assay (WST-1); format: cell-based; details: U87 MG versus HUVEC
Procedure: as §1

[10] = tested on: CT-26 syngeneic colon carcinoma; assay: CT-26 syngeneic tumor model, subcutaneous; format: in vivo, BALB/c mice
Procedure: as §2

[11] = tested on: U87 MG ectopic tumors; assay: Early stage U87 MG ectopic tumors, subcutaneous; format: in vivo, Balb/c SCID mice; details: study day 30; for inhibition of tumor growth: treatment begun at about 100 mm^3
Procedure: To assess whether 2ME2 or Temodarg® (Schering Corp. Kenilworth, N.J.) impact tumor growth of U87 MG, we designed the following experiment. Male Balb/c SCID mice were injected subcutaneously with 1×10^6 U87 MG tumor cells.

[12] = tested on: PC3; assay: PC3 tumor model, XRT combination; format: in vivo; details: 2ME2 or both combined
[13] = tested on: CT-26 cells; assay: In vitro inhibition of proliferation of CT-26 cells; format: cell-based; details: preliminary in vitro studies
[14] = tested on: LLC met; assay: LLC met tumor model; format: in vivo; details: 2ME2 or both combined
[15] = tested on: vascular endothelial cell proliferation; details: Ingber et al. 1990; cited from earlier work
[16] = Separate tolerability study of Temodar; parameters: species or system mice; details: mouse, in vivo, po, q.d.×5; read-out: maximally tolerated dose (MTD)
Procedure: Results: On study day 30, the mean tumor volume of the vehicle control animals was approximately 3000 mm^3. […] Using this dose and regimen in this model, Temodar® blocked U87 MG tumor growth by 98% (T/C =0.02).

[17] = CT-26 model (Table 1), 5-FU, 2ME2 or both combined

estrogen receptor β, sequence (Q92731 whole entry): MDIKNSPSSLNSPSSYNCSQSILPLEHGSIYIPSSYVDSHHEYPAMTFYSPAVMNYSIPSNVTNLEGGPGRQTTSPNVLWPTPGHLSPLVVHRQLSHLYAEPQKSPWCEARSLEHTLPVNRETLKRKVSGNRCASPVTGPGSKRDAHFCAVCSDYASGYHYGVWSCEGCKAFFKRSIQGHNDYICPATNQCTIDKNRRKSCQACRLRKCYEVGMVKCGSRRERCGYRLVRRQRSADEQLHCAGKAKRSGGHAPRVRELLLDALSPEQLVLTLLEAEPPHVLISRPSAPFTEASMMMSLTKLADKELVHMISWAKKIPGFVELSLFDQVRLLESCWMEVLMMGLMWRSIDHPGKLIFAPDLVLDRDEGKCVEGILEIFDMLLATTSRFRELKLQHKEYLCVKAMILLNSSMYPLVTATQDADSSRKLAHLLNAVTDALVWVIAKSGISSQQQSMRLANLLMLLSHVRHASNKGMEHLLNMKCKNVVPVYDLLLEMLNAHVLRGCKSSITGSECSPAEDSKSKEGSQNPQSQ

With `COc1cc2c(cc1O)CC[C@@H]1[C@@H]2CC[C@]2(C)[C@@H](O)CC[C@@H]12` [2ME2, 2-methoxyestradiol] the IC50 [1] was 0.463 µM, the MST [2] was 17 days and the “%Δ (Percent change in tumor volume from start of treatment)” value [3] was 333%. For the same compound, the “inhibition of tumor growth” value [3] was 20%, the T/C [4] was 0.66 and the “%Δ (Percent change in tumor volume from start of treatment)” value [5] was 890%. For the same compound, the “mean changes in body weight as a consequence of treatment” value ([6]; CT-26 bearing BALB/c mice) was “moderate to no change”, the “affinity for estrogen receptor α” value [7] was “low affinity” and the “affinity for estrogen receptor β” value [8] was “low affinity”. For the same compound, the “anti-proliferative dosage on glioblastoma cells relative to dosage with antiangiogenic effect on HUVEC” value [9] was “nearly five times”, the T/C [10, 17] was 0.37 and the T/C ([10]; study date 29, agent alone (2ME2 200 mg/kg p.o. q.d.; 5-FU 30 mg/kg p.o. q.d.×5)) was 0.79 and 0.51. The T/C ([11]; 2ME2 200 mg/kg p.o., q.d.) was 0.61, the “inhibition of tumor growth” value ([11]; 2ME2 200 mg/kg p.o., q.d.) was “approximately 40%” and the T/C ([11]; 2ME2 400 mg/kg p.o., q.d.) was 0.61. The “inhibition of tumor growth” value ([11]; 2ME2 400 mg/kg p.o., q.d.) was “approximately 40%”, the “T − C (Difference in tumor doubling time)” value [12] was 0 days and the IC50 [13] was 3 µM. For the same compound, the T/C ([14]; Cisplatin) was 0.37 and the T/C ([14]; Paclitaxel) was 0.37.

With `O=c1[nH]cc(F)c(=O)[nH]1` [5-FU, 5-Fluorouracil] the MTD at 5 days ([6]; male, mouse, in vivo, po) was 30 mg/kg, the “mean changes in body weight as a consequence of treatment” value ([6]; mouse, in vivo) was “moderate to no change” and the T/C [10, 17] was 0.38.

For `CO[C@@H]1[C@H](OC(=O)NC(=O)CCl)CC[C@]2(CO2)[C@H]1[C@@]1(C)O[C@@H]1CC=C(C)C` [AGM-1470], the “half-maximal inhibition of vascular endothelial cell proliferation at lower concentration than tumor cell proliferation” value [15] is given as 4 logs.

With `N.N.[Cl][Pt][Cl]` [Cisplatin, reference compound] the T/C ([14]; Cisplatin) was 0.19.

Work on `CC(=O)O[C@H]1C(=O)[C@@]2(C)[C@H]([C@H](OC(=O)c3ccccc3)[C@]3(O)C[C@H](OC(=O)[C@H](O)[C@@H](NC(=O)c4ccccc4)c4ccccc4)C(C)=C1C3(C)C)[C@]1(OC(C)=O)CO[C@@H]1C[C@@H]2O` [Paclitaxel, reference compound] yielded an MST [2] of 24 days and a T/C ([14]; Paclitaxel) of 0.38.

In the case of `Cn1nnc2c(C(N)=O)ncn2c1=O` [Temodar ®, reference compound], the “%Δ (Percent change in tumor volume from start of treatment)” value [3] is reported as 266%, the “inhibition of tumor growth” value [3] is reported as 34% and the MTD at 5 days [16] is reported as 42 mg/kg. For the same compound, the T/C ([11]; Temodar 42 mg/kg p.o., q.d.×5) was 0.02 and the “inhibition of tumor growth” value ([11]; Temodar 42 mg/kg p.o., q.d.×5) was 98%.

Work on `CC(C)C[C@H](NC(=O)[C@H](Cc1ccccc1)NC(=O)c1cnccn1)B(O)O` [Velcade, reference compound] yielded a T/C [4] of 0.64.
